{"source": "ChEMBL document CHEMBL5634091", "about": "“Cantharidin analogue alleviates dextran sulfate sodium-induced colitis in mice by inhibiting the activation of NF-κB signaling” (Eur J Med Chem, 2023)", "key": {"HCT-116 [1]": {"system": "HCT-116", "test": "Inhibition of TNF-alpha induced MAPK signaling pathway activation in human HCT-116 cells assessed as decrease in phospho-ERK protein expression at 6.25 uM preincubated for 4 hrs and followed TNF-alpha stimulation and measured after 10 mins by Western blot analysis", "assay_type": "cell-based", "settings": "time 250.0 min"}, "[2]": {"test": "Cytotoxicity against human DLD-1 cells assessed as inhibition in cell proliferation", "assay_type": "toxicity, cell-based"}, "DLD-1 [3]": {"system": "DLD-1", "test": "Inhibition of TNF-alpha induced activation of MAPK signaling pathway in human DLD-1 cells assessed as change in phosphorylated p38 level at 6.25 to 50 uM preincubated for 4 hrs and followed TNF-alpha stimulation and measured after 10 mins by Western blot analysis", "assay_type": "cell-based", "settings": "dose 6.25-50 µM, time 250.0 min"}, "Mus musculus [4]": {"system": "Mus musculus", "test": "Anti-inflammatory activity in C57BL/6 mouse model of DSS-induced acute ulcerative colitis assessed as reduction in histopathological changes of granulocyte infiltration at 100 to 300 mg/kg, po administered once a day for 7 days by H and E staining based analysis", "assay_type": "functional, organism-based", "settings": "dose 100-300 mg/kg, time 7.0 day"}, "DLD-1 [5]": {"system": "DLD-1", "test": "Effect on IKK protein expression in TNF-alpha stimulated human DLD-1 cells at 12.5 to 50 uM preincubated for 4 hrs and followed TNF-alpha stimulation and measured after 10 mins by Western blot analysis", "assay_type": "functional, cell-based", "settings": "dose 12.5-50 µM, time 250.0 min"}, "HCT-116 [6]": {"system": "HCT-116", "test": "Activation of MAPK signaling pathway in TNF-alpha stimulated human HCT-116 cells assessed as increase in phospho-JNK protein expression at 50 uM preincubated for 4 hrs and followed TNF-alpha stimulation and measured after 10 mins by Western blot analysis", "assay_type": "cell-based", "settings": "filed as activator, time 250.0 min"}, "[7]": {"test": "Toxicity in C57BL/6 mouse model of DSS-induced acute ulcerative colitis assessed as effect on lung tissue at 100 to 300 mg/kg, po administered once a day for 7 days by H and E staining based analysis", "assay_type": "organism-based", "settings": "in vivo, 168 h, dose 100-300 mg/kg, time 7 day"}, "HCT-116 [8]": {"system": "HCT-116", "test": "Cytotoxicity against human HCT-116 cells assessed as induction of stress response at 50 uM", "assay_type": "toxicity, cell-based", "settings": "hct-116, 50 µM"}, "Mus musculus [9]": {"system": "Mus musculus", "test": "Anti-inflammatory activity in C57BL/6 mouse model of DSS-induced acute ulcerative colitis assessed as reduction in hyperemia at 100 to 300 mg/kg, po administered once a day for 7 days by H and E staining based analysis", "assay_type": "functional, organism-based", "settings": "dose 100-300 mg/kg, time 7.0 day"}, "HCT-116 [10]": {"system": "HCT-116", "test": "Inhibition of TNF-alpha induced NF-kB activation in human HCT-116 cells assessed as decrease in phosphorylated IkappaBalpha protein expression preincubated for 4 hrs and followed TNF-alpha stimulation and measured after 10 mins by Western blot analysis", "assay_type": "cell-based", "settings": "dose 12.5-50 µM, time 250.0 min"}, "[11]": {"test": "Cytotoxicity against TNF-alpha induced HEK293T cells assessed as inhibition of cell growth preincubated for 24 hrs followed by TNFalpha stimulation and measured after 4 hrs by SRB assay", "assay_type": "toxicity, cell-based, HEK-293T", "settings": "human, HEK293T cells induced with TNF-alpha; time 28 hrs"}, "HCT-116 [12]": {"system": "HCT-116", "test": "Effect on IKK protein expression in TNF-alpha stimulated human HCT-116 cells at 12.5 to 50 uM preincubated for 4 hrs and followed TNF-alpha stimulation and measured after 10 mins by Western blot analysis", "assay_type": "functional, cell-based", "settings": "dose 12.5-50 µM, time 250.0 min"}, "[13]": {"test": "Toxicity in Kunming mouse assessed as number of mouse survived at 1111 mg/kg, po measured for 15 days", "assay_type": "organism-based", "settings": "in vivo, 360 h, time 15 day"}, "HCT-116 [14]": {"system": "HCT-116", "test": "Inhibition of TNF-alpha induced NF-kB activation in human HCT-116 cells assessed as decrease in phosphorylated IKK protein expression preincubated for 4 hrs and followed TNF-alpha stimulation and measured after 10 mins by Western blot analysis", "assay_type": "cell-based", "settings": "dose 12.5-50 µM, time 250.0 min"}, "[15]": {"test": "Toxicity in Kunming mouse assessed as number of mouse survived at 400 mg/kg, po measured for 15 days", "assay_type": "organism-based", "settings": "in vivo, 360 h, time 15 day"}, "HCT-116 [16]": {"system": "HCT-116", "test": "Inhibition of TNF-alpha induced activation of MAPK signaling pathway in human HCT-116 cells assessed as change in phosphorylated p38 level at 6.25 to 50 uM preincubated for 4 hrs and followed TNF-alpha stimulation and measured after 10 mins by Western blot analysis", "assay_type": "cell-based", "settings": "dose 6.25-50 µM, time 250.0 min"}, "Mus musculus [17]": {"system": "Mus musculus", "test": "Anti-inflammatory activity in C57BL/6 mouse model of DSS-induced acute ulcerative colitis assessed as reduction in tissue lesions at 100 to 300 mg/kg, po administered once a day for 7 days by H and E staining based analysis", "assay_type": "functional, organism-based", "settings": "dose 100-300 mg/kg, time 7.0 day"}, "DLD-1 [18]": {"system": "DLD-1", "test": "Inhibition of TNF-alpha induced NF-kB activation in human DLD-1 cells assessed as decrease in phosphorylated IkappaBalpha protein expression preincubated for 4 hrs and followed TNF-alpha stimulation and measured after 10 mins by Western blot analysis", "assay_type": "cell-based", "settings": "dose 12.5-50 µM, time 250.0 min"}, "[19]": {"test": "Toxicity in C57BL/6 mouse model of DSS-induced acute ulcerative colitis assessed as effect on liver tissue at 100 to 300 mg/kg, po administered once a day for 7 days by H and E staining based analysis", "assay_type": "organism-based", "settings": "in vivo, 168 h, dose 100-300 mg/kg, time 7 day"}, "HCT-116 [20]": {"system": "HCT-116", "test": "Upregulation of JNK protein expression in TNF-alpha stimulated human HCT-116 cells at 50 uM preincubated for 4 hrs and followed TNF-alpha stimulation and measured after 10 mins by Western blot analysis", "assay_type": "functional, cell-based", "settings": "time 250.0 min"}, "HCT-116 [21]": {"system": "HCT-116", "test": "Inhibition of TNF-alpha induced NF-kB activation in human HCT-116 cells assessed as decrease in phosphorylated p65 protein expression preincubated for 4 hrs and followed TNF-alpha stimulation and measured after 10 mins by Western blot analysis", "assay_type": "cell-based", "settings": "dose 12.5-50 µM, time 250.0 min"}, "Mus musculus [22]": {"system": "Mus musculus", "test": "Anti-inflammatory activity in po dosed C57BL/6 mouse model of DSS-induced acute ulcerative colitis assessed as decrease in TNF-alpha expression in serum administered once a day for 7 days by ELISA", "assay_type": "functional, organism-based", "settings": "dose 100-300 mg/kg, time 7.0 day"}, "Mus musculus [23]": {"system": "Mus musculus", "test": "Anti-inflammatory activity in po dosed C57BL/6 mouse model of DSS-induced acute ulcerative colitis assessed as reduction in IL-1beta mRNA expression in colon administered once a day for 7 days by RT-PCR analysis", "assay_type": "functional, organism-based", "settings": "dose 100-300 mg/kg, time 7.0 day"}, "Mus musculus [24]": {"system": "Mus musculus", "test": "Anti-inflammatory activity in po dosed C57BL/6 mouse model of DSS-induced acute ulcerative colitis assessed as reduction in TNFalpha mRNA expression in colon administered once a day for 7 days by RT-PCR analysis", "assay_type": "functional, organism-based", "settings": "dose 100-300 mg/kg, time 7.0 day"}, "Mus musculus [25]": {"system": "Mus musculus", "test": "Anti-inflammatory activity in C57BL/6 mouse model of DSS-induced acute ulcerative colitis assessed as reduction in submucosal edema at 100 to 300 mg/kg, po administered once a day for 7 days by H and E staining based analysis", "assay_type": "functional, organism-based", "settings": "dose 100-300 mg/kg, time 7.0 day"}, "Mus musculus [26]": {"system": "Mus musculus", "test": "Anti-inflammatory activity in po dosed C57BL/6 mouse model of DSS-induced acute ulcerative colitis assessed as reduction in CCL2 mRNA expression in colon administered once a day for 7 days by RT-PCR analysis", "assay_type": "functional, organism-based", "settings": "dose 100-300 mg/kg, time 7.0 day"}, "Mus musculus [27]": {"system": "Mus musculus", "test": "Anti-inflammatory activity in C57BL/6 mouse model of DSS-induced acute ulcerative colitis assessed as reduction in p65 expression in colon at 100 to 300 mg/kg, po administered once a day for 7 days by immunohistochemical analysis", "assay_type": "functional, organism-based", "settings": "dose 100-300 mg/kg, time 7.0 day"}, "[28]": {"test": "Toxicity in C57BL/6 mouse model of DSS-induced acute ulcerative colitis assessed as effect on spleen tissue at 100 to 300 mg/kg, po administered once a day for 7 days by H and E staining based analysis", "assay_type": "organism-based", "settings": "in vivo, 168 h, dose 100-300 mg/kg, time 7 day"}, "[29]": {"test": "Selectivity index, ratio of CC50 for cytotoxicity against LPS/IFNgamma induced mouse RAW264.7 cells to IC50 for antiinflammatory activity in mouse RAW264.7 cells assessed as inhibition in LPS/IFNgamma-induced NO production", "assay_type": "toxicity, cell-based", "settings": "RAW264.7 cells induced with LPS/IFNgamma, read-out: Ratio IC50"}}, "note": "The source made the active and inactive calls. No cut-off for these calls is given here."}
{"smiles": "COC(=O)C1=C(C(=O)OC)C2OC1CC2C#Cc1ccc(C)cc1", "note": "(centres undefined)", "values": [{"measurement": "inhibition", "setting": "HCT-116 [1]", "value": "Active"}, {"measurement": "IC50", "setting": "[2]", "value": 8.24, "unit": "µM"}, {"measurement": "inhibition", "setting": "DLD-1 [3]", "value": "inactive"}, {"measurement": "Activity", "setting": "Mus musculus [4]", "value": "Active"}, {"measurement": "Activity", "setting": "DLD-1 [5]", "value": "inactive"}, {"measurement": "Activity", "setting": "HCT-116 [6]", "value": "Active"}, {"measurement": "Activity", "setting": "[7]", "value": "Non-Toxic"}, {"measurement": "Activity", "setting": "HCT-116 [8]", "value": "Toxic"}, {"measurement": "Activity", "setting": "Mus musculus [9]", "value": "Active"}, {"measurement": "inhibition", "setting": "HCT-116 [10]", "value": "Dose-Dependent Effect"}, {"measurement": "CC50 at 4 h", "setting": "[11]", "value": 94.3, "unit": "µM"}, {"measurement": "Activity", "setting": "HCT-116 [12]", "value": "inactive"}, {"measurement": "Activity", "setting": "[13]", "value": 0}, {"measurement": "inhibition", "setting": "HCT-116 [14]", "value": "Dose-Dependent Effect"}, {"measurement": "Activity", "setting": "[15]", "value": 0}, {"measurement": "inhibition", "setting": "HCT-116 [16]", "value": "inactive"}, {"measurement": "Activity", "setting": "Mus musculus [17]", "value": "Active"}, {"measurement": "inhibition", "setting": "DLD-1 [18]", "value": "Dose-Dependent Effect"}, {"measurement": "Activity", "setting": "[19]", "value": "Non-Toxic"}, {"measurement": "Activity", "setting": "HCT-116 [20]", "value": "Active"}, {"measurement": "inhibition", "setting": "HCT-116 [21]", "value": "Dose-Dependent Effect"}, {"measurement": "Activity", "setting": "Mus musculus [22]", "value": "Dose-Dependent Effect"}, {"measurement": "Activity", "setting": "Mus musculus [23]", "value": "Dose-Dependent Effect"}, {"measurement": "Activity", "setting": "Mus musculus [24]", "value": "Dose-Dependent Effect"}, {"measurement": "Activity", "setting": "Mus musculus [25]", "value": "Active"}, {"measurement": "Activity", "setting": "Mus musculus [26]", "value": "Dose-Dependent Effect"}, {"measurement": "Activity", "setting": "Mus musculus [27]", "value": "Active"}, {"measurement": "Activity", "setting": "[28]", "value": "Non-Toxic"}, {"measurement": "selectivity ratio", "setting": "[29]", "value": 4.57}]}
